{"source": "paper PMC4335020", "about": "“Single Oral Dose Pharmacokinetics of Decursin and Decursinol Angelate in Healthy Adult Men and Women” (PLoS ONE, 2015)", "experiment": "Single oral dose human plasma pharmacokinetics of D, DA and DOH after Cogni.Q", "type": "in vivo", "source_text": "Ten healthy male and 10 female subjects were recruited by public announcement in Amarillo, TX, from January 2013 to April 2013 (see Fig. 1 CONSORT diagram). The sample size for each gender was chosen without power calculation due to the lack of prior knowledge of PK parameter variance in humans. After receiving informed consent verbally and in writing, the health status of each candidate was confirmed by health questionnaire, plasma biochemistry (hepatic and renal functions), complete blood cell count (CBC), and a physical examination by a participating academic physician. Subjects with diabetes, or pregnant, perinatal and breastfeeding women were excluded. For the 48 hours preceding study visit until the final blood draw, all subjects were instructed to avoid taking any prescription or nonprescription drugs, vitamins, and herbal/dietary supplements. Each subject was compensated for participating in the study per TTUHSC IRB approved rate.\nEligible subjects arrived at our clinical facility at 0700 (7:00 am) on the test day after a fast beginning at 2200 (10:00 pm) the previous night. After a brief review of vital signs, the nurse placed an intravenous (IV) line with saline drip in one arm of each subject. A baseline pre-dose (hour 0) blood sample was drawn through the IV line; after that subjects swallowed four Cogni.Q vegicaps with 240 mL of water at hour 0 under direct supervision. Subjects stayed at the clinical facility in their room for the next 12 hours, returning at 24 and 48 hours. Blood was drawn at baseline (hour 0) and at 0.5, 1, 2, 3, 4, 6, 8, 12, 24 and 48 hours after dosing into Vacutainer Blood Collection Tube (Becton-Dickinson, Franklin Lakes, NJ. Product Number: 367874, Sodium heparin was used as anti-coagulant). Water was allowed as desired except for within the first hour after Cogni.Q consumption. All subjects received standardized meals at post-dose hours 4.5 and 9.5 but no food was allowed for at least the first 4 hours post-dose.\nPlasma was prepared by centrifuging the heparinized blood at 1000 g for 15 minutes at room temperature. Urine samples (40mL) were collected within time spans of 0–4, 4–8, 8–12 and 12–24 hours (total volume of urine was recorded). All plasma and urine samples were put on dry ice immediately and then stored at -80°C freezer until analysis.\nPlasma samples were extracted with a validated solid supported liquid extraction (SLE) method facilitated with a positive pressure manifold (Biotage, Charlotte, NC). Briefly, 100 μL of plasma sample was spiked with 5 μL of 10 ng/μL prednisolone (IS), diluted with 200 μL of LC-MS grade water, mixed and loaded onto ISOLUTE SLE+ 400 μL Array Well cartridges (Biotage, Charlotte, NC). A pulse of minimum positive pressure was applied to facilitate the samples absorption into the cartridges. After the samples were allowed to absorb for 5 min, the compounds were eluted with 2×500 μL tert-butyl methyl ether. The eluent was dried in a Speedvac and the resulting residue was reconstituted in 50 μL of methanol for UHPLC-MS/MS analysis.\nEight-point calibration curves were constructed for D, DA and DOH, at concentrations of 0.1, 0.5, 1, 5, 10, 20, 50 and 100 μg/L for D and DA, and at concentrations of 1, 5, 10, 50, 100, 200, 500 and 1000 μg/L for DOH, respectively. The linear range was 0.1–100 μg/L (0.3–300 nmol/L), 0.1–100 μg/L (0.3–300 nmol/L) and 1–1000 μg/L (4–4000 nmol/L) for D, DA and DOH, respectively. The inter- and intra-assay CV were lower than 6.5% and the accuracy was between 90–105%. Calibration curve was run for each batch of samples analyzed. The mean calibration curve correlation coefficient (r) for D, DA and DOH was 0.999, 0.999 and 0.998, respectively (data from 7–10 calibration curves). In addition, 70% of the plasma samples were extracted and analyzed twice, the data from two replicate analyses were nearly identical and combined for final data analyses and presentation. […]", "note": "Where two headings read alike, the source gives them in different places."}
{"smiles": "CC(C)=CC(=O)O[C@H]1Cc2cc3ccc(=O)oc3cc2OC1(C)C", "note": "[D, decursin]", "values": [{"measurement": "Cmax", "setting": "both sexes, human, plasma, oral, 4 Cogni.Q vegicaps, n=20 (S1 Table), read-out: Cmax, nM, Grand Mean", "value": 5.3, "unit": "nM"}, {"measurement": "Tmax", "setting": "both sexes, human, plasma, oral, 4 Cogni.Q vegicaps, n=20 (S1 Table), read-out: Tmax, h, Grand Mean", "value": 2.1, "unit": "h"}, {"measurement": "half-life", "setting": "both sexes, human, plasma, oral, all subjects, outliers excluded (S1 Table), read-out: Terminal t1/2, h, Grand Mean (converted)", "value": 17.4, "unit": "h"}, {"measurement": "AUC(0-t)", "setting": "both sexes, human, plasma, oral, n=20 (S1 Table), read-out: AUC0-48h, Grand Mean", "value": 37.1, "unit": "nmol·h/L"}, {"measurement": "AUC(0-t)", "setting": "both sexes, human, plasma, po, all human subjects n = 20, single oral dose Cogni.Q, plasma (Table 2), read-out: AUC0–48h, nmol/L, Mean (SD)", "value": 37.1, "unit": "nmol·h/L"}, {"measurement": "AUC(0-t)", "setting": "both sexes, human, twenty healthy subjects, single oral dose Cogni.Q, plasma (abstract), read-out: mean area under the curve (AUC0-48h)", "value": 37, "unit": "nmol·h/L"}, {"measurement": "Tmax", "setting": "both sexes, all human subjects n = 20, single oral dose 4 Cogni.Q vegicaps (119 mg D, 77 mg DA), plasma, read-out: Tmax, h, Mean (SD)", "value": 2.1, "unit": "h"}, {"measurement": "half-life", "setting": "both sexes, all human subjects, four outlier subjects excluded, single oral dose Cogni.Q, plasma, read-out: Terminal t1/2, h, Mean (SD) (converted)", "value": 17.4, "unit": "h"}, {"measurement": "AUC(0-t)", "setting": "female, human, plasma, oral, 4 Cogni.Q vegicaps, Women n=10 (S1 Table), read-out: AUC0-48h, Mean, F", "value": 45.7, "unit": "nmol·h/L"}, {"measurement": "Cmax", "setting": "female, human, plasma, oral, 4 Cogni.Q vegicaps, Women n=10 (S1 Table), read-out: Cmax, nM, Mean, F", "value": 5.37, "unit": "nM"}, {"measurement": "Tmax", "setting": "female, human, plasma, oral, Women n=10 (S1 Table), read-out: Tmax, h, Mean, F", "value": 2.4, "unit": "h"}, {"measurement": "half-life", "setting": "female, human, plasma, oral, Women, outliers excluded (S1 Table), read-out: Terminal t1/2, h, Mean, F (converted)", "value": 17, "unit": "h"}, {"measurement": "AUC(0-t)", "setting": "female, human, plasma, po, Women N = 10, single oral dose Cogni.Q, plasma, read-out: AUC0–48h, h.nmol/L Mean (SD)", "value": 45.7, "unit": "nmol·h/L"}, {"measurement": "Cmax", "setting": "female, human, plasma, po, Women N = 10, single oral dose Cogni.Q, plasma, read-out: Cmax, nmol/L, Mean (SD)", "value": 5.4, "unit": "nM"}, {"measurement": "Tmax", "setting": "female, human, plasma, po, Women N = 10, single oral dose Cogni.Q, plasma, read-out: Tmax, h, Mean (SD)", "value": 2.4, "unit": "h"}, {"measurement": "half-life", "setting": "female, human, plasma, po, Women, outlier subjects excluded, single oral dose Cogni.Q, plasma, read-out: T1/2, h, terminal Mean (SD) (converted)", "value": 17, "unit": "h"}, {"measurement": "half-life", "setting": "human, plasma, oral, 4 Cogni.Q vegicaps, subject S1 (115 lb), outlier, excluded from means, read-out: Terminal t1/2, h (converted)", "value": 173, "unit": "h"}, {"measurement": "AUC(0-t)", "setting": "human, plasma, oral, 4 Cogni.Q vegicaps, subject S1 (115 lb), read-out: AUC0-48h", "value": 45, "unit": "nmol·h/L"}, {"measurement": "Cmax", "setting": "human, plasma, oral, 4 Cogni.Q vegicaps, subject S1 (115 lb), read-out: Cmax", "value": 4.7, "unit": "nM"}, {"measurement": "Tmax", "setting": "human, plasma, oral, 4 Cogni.Q vegicaps, subject S1 (115 lb), read-out: Tmax", "value": 1, "unit": "h"}, {"measurement": "AUC(0-t)", "setting": "human, plasma, oral, 4 Cogni.Q vegicaps, subject S2 (194 lb), read-out: AUC0-48h", "value": 14.8, "unit": "nmol·h/L"}, {"measurement": "Cmax", "setting": "human, plasma, oral, 4 Cogni.Q vegicaps, subject S2 (194 lb), read-out: Cmax", "value": 2, "unit": "nM"}, {"measurement": "half-life", "setting": "human, plasma, oral, 4 Cogni.Q vegicaps, subject S2 (194 lb), read-out: Terminal t1/2, h (converted)", "value": 16.9, "unit": "h"}, {"measurement": "Tmax", "setting": "human, plasma, oral, 4 Cogni.Q vegicaps, subject S2 (194 lb), read-out: Tmax", "value": 2, "unit": "h"}, {"measurement": "half-life", "setting": "human, plasma, oral, 4 Cogni.Q vegicaps, subject S3 (170 lb), outlier, excluded from means, read-out: Terminal t1/2, h (converted)", "value": 69.6, "unit": "h"}, {"measurement": "AUC(0-t)", "setting": "human, plasma, oral, 4 Cogni.Q vegicaps, subject S3 (170 lb), read-out: AUC0-48h", "value": 9.8, "unit": "nmol·h/L"}, {"measurement": "Cmax", "setting": "human, plasma, oral, 4 Cogni.Q vegicaps, subject S3 (170 lb), read-out: Cmax", "value": 1.6, "unit": "nM"}, {"measurement": "Tmax", "setting": "human, plasma, oral, 4 Cogni.Q vegicaps, subject S3 (170 lb), read-out: Tmax", "value": 4, "unit": "h"}, {"measurement": "AUC(0-t)", "setting": "human, plasma, oral, 4 Cogni.Q vegicaps, subject S4 (170 lb), read-out: AUC0-48h", "value": 119, "unit": "nmol·h/L"}, {"measurement": "Cmax", "setting": "human, plasma, oral, 4 Cogni.Q vegicaps, subject S4 (170 lb), read-out: Cmax", "value": 13.2, "unit": "nM"}, {"measurement": "half-life", "setting": "human, plasma, oral, 4 Cogni.Q vegicaps, subject S4 (170 lb), read-out: Terminal t1/2, h (converted)", "value": 10.8, "unit": "h"}, {"measurement": "Tmax", "setting": "human, plasma, oral, 4 Cogni.Q vegicaps, subject S4 (170 lb), read-out: Tmax", "value": 2, "unit": "h"}, {"measurement": "AUC(0-t)", "setting": "human, plasma, oral, 4 Cogni.Q vegicaps, subject S5 (161 lb), read-out: AUC0-48h", "value": 34.3, "unit": "nmol·h/L"}, {"measurement": "Cmax", "setting": "human, plasma, oral, 4 Cogni.Q vegicaps, subject S5 (161 lb), read-out: Cmax", "value": 2, "unit": "nM"}, {"measurement": "half-life", "setting": "human, plasma, oral, 4 Cogni.Q vegicaps, subject S5 (161 lb), read-out: Terminal t1/2, h (converted)", "value": 22.8, "unit": "h"}, {"measurement": "Tmax", "setting": "human, plasma, oral, 4 Cogni.Q vegicaps, subject S5 (161 lb), read-out: Tmax", "value": 1, "unit": "h"}, {"measurement": "AUC(0-t)", "setting": "human, plasma, oral, 4 Cogni.Q vegicaps, subject S6 (120 lb), read-out: AUC0-48h", "value": 94, "unit": "nmol·h/L"}, {"measurement": "Cmax", "setting": "human, plasma, oral, 4 Cogni.Q vegicaps, subject S6 (120 lb), read-out: Cmax", "value": 13.4, "unit": "nM"}, {"measurement": "half-life", "setting": "human, plasma, oral, 4 Cogni.Q vegicaps, subject S6 (120 lb), read-out: Terminal t1/2, h (converted)", "value": 12.8, "unit": "h"}, {"measurement": "Tmax", "setting": "human, plasma, oral, 4 Cogni.Q vegicaps, subject S6 (120 lb), read-out: Tmax", "value": 3, "unit": "h"}, {"measurement": "AUC(0-t)", "setting": "human, plasma, oral, 4 Cogni.Q vegicaps, subject S7 (180 lb), read-out: AUC0-48h", "value": 23.3, "unit": "nmol·h/L"}, {"measurement": "Cmax", "setting": "human, plasma, oral, 4 Cogni.Q vegicaps, subject S7 (180 lb), read-out: Cmax", "value": 3.6, "unit": "nM"}, {"measurement": "half-life", "setting": "human, plasma, oral, 4 Cogni.Q vegicaps, subject S7 (180 lb), read-out: Terminal t1/2, h (converted)", "value": 24.7, "unit": "h"}, {"measurement": "Tmax", "setting": "human, plasma, oral, 4 Cogni.Q vegicaps, subject S7 (180 lb), read-out: Tmax", "value": 4, "unit": "h"}, {"measurement": "AUC(0-t)", "setting": "human, plasma, oral, 4 Cogni.Q vegicaps, subject S8 (160 lb), read-out: AUC0-48h", "value": 79.2, "unit": "nmol·h/L"}, {"measurement": "Cmax", "setting": "human, plasma, oral, 4 Cogni.Q vegicaps, subject S8 (160 lb), read-out: Cmax", "value": 9.6, "unit": "nM"}, {"measurement": "half-life", "setting": "human, plasma, oral, 4 Cogni.Q vegicaps, subject S8 (160 lb), read-out: Terminal t1/2, h (converted)", "value": 9.9, "unit": "h"}, {"measurement": "Tmax", "setting": "human, plasma, oral, 4 Cogni.Q vegicaps, subject S8 (160 lb), read-out: Tmax", "value": 3, "unit": "h"}, {"measurement": "AUC(0-t)", "setting": "human, plasma, oral, 4 Cogni.Q vegicaps, subject S9 (158 lb), read-out: AUC0-48h", "value": 20.6, "unit": "nmol·h/L"}, {"measurement": "Cmax", "setting": "human, plasma, oral, 4 Cogni.Q vegicaps, subject S9 (158 lb), read-out: Cmax", "value": 2.4, "unit": "nM"}, {"measurement": "half-life", "setting": "human, plasma, oral, 4 Cogni.Q vegicaps, subject S9 (158 lb), read-out: Terminal t1/2, h (converted)", "value": 24, "unit": "h"}, {"measurement": "Tmax", "setting": "human, plasma, oral, 4 Cogni.Q vegicaps, subject S9 (158 lb), read-out: Tmax", "value": 1, "unit": "h"}]}
